Measured values as given in patent US10813931B2, “Methods and compositions relating to the treatment of cancer” (THE BRIGHAM AND WOMEN'S HOSPITAL, INC., priority 2013, dated 2020).

Tests used:
231 DTC and 468DTC = test: Cell viability of DTC subsets with dasatinib, PI103, combination or DPNP; assay type: cell-based, human; conditions: combination of PI103 and dasatinib (1:1), 48 h
Experimental: (§1) Parent cells DTC or Parent^Phenocopy were generated as described and plated at a concentration of 1.5×10^5 in a clear bottom 96-well plate. Cells were exposed to indicated treatments ([…]) for 48 hours in serum containing medium. Following incubation, cells were washed 1 time with PBS and recovered in serum and phenol red-free RPMI or DMEM and subsequently treated with MTS following manufacturer protocol (Promega, Madison, Wis.). Drug sensitivity index (SI) was determined as follows: Cell viability was determined as % of control for treatment conditions of 10 nM, 100 nM 1000 nM and 10 μM to generate an average cell viability across these 4 drug concentrations. SI was calculated as a ratio of parent:DTC or parent:parent^phenocopy. SI=1 correlates to parental sensitivity, SI<1 correlates to resistance compared to parent cell line and SI>1 correlates to enhanced sensitivity to the indicated drug compared to the parent cell line at the same concentration average.

231 parent and DTC = test: Cell viability (MTS) and drug sensitivity index, 231 parent vs DTC vs 231Phenocopy; assay type: cell-based, human; conditions: for cell viability of DTC, SFK and BCR-Abl inhibition separately and in combination: 231 DTC, PP2 and imatinib in combination
Experimental: (§2) Following viability analyses conducted as described in supplemental data, drug sensitivity index (SI) was determined as follows: Cell viability was determined as % of control for treatment conditions of 10 nM, 100 nM 1000 nM and 10 μM to generate an average cell viability across these 4 drug concentrations. SI was calculated as a ratio of parent:DTC or parent:parent^phenocopy. SI=1 correlates to parental sensitivity, SI<1 correlates to resistance compared to parent cell line and SI>1 correlates to enhanced sensitivity to the indicated drug compared to the parent cell line at the same concentration average.
as §1, with “Cells” for “Parent cells DTC or Parent^Phenocopy were generated as described and plated at a concentration of 1.5×10^5 in a clear bottom 96-well plate. Cells”

[1] = test system: 468 parent cells and a subset of DTC; test: Survival curves of 468 parent cells and DTC exposed to chemotherapy; assay type: cell-based, human; conditions: 48 h exposure
Experimental: MDA-MB-231, MDA-MB-468 were purchased from ATCC. For acute treatments, cells were plated at a density of 0.5-1×10^5 cells/ml and allowed to adhere for 24-48 hr. when cells reached ˜70% confluency they were treated with antitubulins at indicated concentrations for 4-24 hours and utilized for subsequent assays. To generate chemotherapy tolerant subset, cells were treated with indicated concentrations of chemotherapy (48). Following washes with PBS, adherent cells were trypsinized and re-plated at a density of 1.5-2×10^5 cells/ml and cultured in serum-containing medium. After 24 hours incubation, floating cells were removed and remaining cells were washed with 1×PBS and considered a subpopulation of chemotherapy-tolerant cells. A separate plate of control cells were maintained concurrently in serum containing medium and provided fresh media at every interval where DTC received fresh media. […]
Parent cells DTC or Parent^Phenocopy were generated as described and plated at a concentration of 1.5×10^5 in a clear bottom 96-well plate. […] Drug sensitivity index (SI) was determined as follows: Cell viability was determined as % of control for treatment conditions of 10 nM, 100 nM 1000 nM and 10 μM to generate an average cell viability across these 4 drug concentrations. SI was calculated as a ratio of parent:DTC or parent:parent^phenocopy. […]

[2] = test system: DTC subsets derived from multiple cancer types; test: Drug sensitivity index of dasatinib in DTC isolated from multiple cell lines; assay type: cell-based; conditions: DTC from multiple cell lines vs parent, 48 h
Experimental: as §2
as §1, with “SI=1 correlates to parental sensitivity, SI<1 correlates to resistance compared to parent cell line and SI>1 correlates to enhanced sensitivity to the indicated drug compared to the parent cell line at the same concentration average.” left out

AKT signaling = test: Western blot of phosphorylated and total Akt in 231 DTC; assay type: cell-based, human; conditions: increasing doses, 4 h
Experimental: Laemli sample buffer was prepared as a 5× solution containing β-mercaptoethanol as a reducing agent. Immunoprecipitaion was performed using both classic and direct IP kits purchased from Pierce following manufacturer protocols (Thermo Fisher inc. Rockford, Ill.). Briefly, cell lysates were prepared using IP/Lysis Buffer (Thermo Fisher inc. Rockford, Ill.) in the presence of 2×HALT protease/phosphatase inhibitor cocktail (Thermo Fisher inc. Rockford, Ill.). For classic Immunoprecipitation, lysates were combined with indicated antibodies for 48 hours at 4 C and combined with protein A/G agarose beads for 4 hours prior to elution with 2× Laemli Buffer at 100 C. Direct immunoprecipitation was performed following manufacturer protocol. Briefly, antibodies were covalently attached to agarose beads, lysate was combined with antibody-agarose bead conjugates for 24 hours prior to washes and elution with provided Elution Buffer. Protein samples were resolved by SDS-PAGE and transferred to PVDF membranes prior to incubation at 4 C with indicated primary antibodies. […] Optical densities of western blots were measured using ImageJ™ open source software (National Institutes of Health) and validated using Adobe CS5™.

[3] = test system: explant from stage IV, metastatic breast cancer patient; test: Refractory stage IV metastatic breast cancer explant, caspase activation; design: species or system human; conditions: combination of dasatinib with DTX, 48 h
Experimental: Fresh tumor tissues were collected from breast cancer patients immediately after surgical resection at HCG cancer hospital, Bangalore, India. The tumor samples were transported to the laboratory at 4° C., in appropriate transport buffer within 60 minutes post-resection, for ex-vivo studies and molecular and pathological evaluation. Tissues were cut into thin sections and cultured in 96 well plate using optimized conditions (Radhakrishnan et al., 2013). Tumors were treated with a taxane-containing regimen (Docetaxel+Doxorubicin+Cyclophosphamide) or other drugs as indicated. DMSO was used as a vehicle control. After 48 hrs of treatment, tumor cell viability was measured and release of soluble cleaved caspase-3 and caspase-8 were determined.
Human Tumor tissues were fixed in Phos stop (Roche) containing 4% buffered formalin and embedded in paraffin. Prior to immunohistochemical staining of target proteins 4-μm-thick tissue sections mounted in poly L lysine coated glass slides were deparaffinized and rehydrated. Heat induced antigen retrieval was achieved using citrate buffer (pH7.8). […] Immunoreactivity was scored by intensity of staining (0, no staining, 1 weak; 2 moderate; 3 strong) and percentage of positive cells. By multiplying both values, a final score was calculated. […]

[4] = test system: 4T-1 mouse mammary carcinoma; test: 4T-1 tumor growth in Balb/C mice; assay type: in vivo
Experimental: 4-6 week old Balb/C mice (Charles River, Cambridge Mass.) were inoculated with 10^6 4 T-1 mouse mammary carcinoma cells in the left flank (Charles River, Cambridge Mass.). Mice identified with tumors were treated with docetaxel (DTX) or vehicle twice at 72 hour intervals at 10 mg/kg i.v. or 15 mg/kg i.p. and subsequently treated with dasatinib i.p. or nanoparticles i.v. 72 hours following the final DTX dose. Tumors were harvested at indicated time points and evaluated for protein phosphorylation and expression. Experimental detail provided in supplemental data.
1 million 4T-1 mouse mammary carcinoma cells suspended in 100 µL PBS were injected per left flank of 5-6 week old Balb/C (Charles River, Wilmington Mass.). DTX was dissolved in pure Ethanol at a concentration of 50 mg/ml mixed 1:1 with Polysorbate 80 (Tween 80) and brought to a final working concentration with 5% glucose in PBS. Once Tumors became palpable (˜100 mm^3), DTX or vehicle treatments were administered at 100 μL volumes. Dasatinib was dissolved in DMSO to working concentration and delivered as 50 μL injections on indicated days, 50 µL DMSO used as a control in these studies. Tumor volumes were measured by a third party unaware of treatment conditions using digital calipers (Starlett, Athol, Mass.), volumes were assessed by the following formula: (Width×Width×length)/2 and expressed as relative volume increase from day 1. Tumor homogenate was prepared by homogenization of equal weight tissue sections incubated in 3×RIPA buffer containing 2× protease/phosphatase inhibitor cocktail (Thermo Fisher, Waltham, Mass.).

TNBC = conditions: 2011, cited from earlier work
MDA-MB-231 (231) = test: CD44 surface expression by FACS in 231 cells; assay type: cell-based, human; conditions: 231 cells surviving 500 nM doxorubicin
Experimental: MDA-MB-231, MDA-MB-468 were purchased from ATCC. For acute treatments, cells were plated at a density of 0.5-1×10^5 cells/ml and allowed to adhere for 24-48 hr. when cells reached ˜70% confluency they were treated with antitubulins at indicated concentrations for 4-24 hours and utilized for subsequent assays. To generate chemotherapy tolerant subset, cells were treated with indicated concentrations of chemotherapy (48). Following washes with PBS, adherent cells were trypsinized and re-plated at a density of 1.5-2×10^5 cells/ml and cultured in serum-containing medium. […]
Cells were cultured as indicated and fixed with 4% paraformaldehyde in PBS for 30 min at RT and blocked in 10% goat serum (v/v). Following PBS washes, cells were incubated with indicated antibodies for 60 minutes at room temperature or overnight at 4 C and analyzed by FACS (Accuri cyomteters Inc. Ann Arbor, Mich.). Cell cycle analyzed in propidium iodide solution following incubation in 70% Ethanol overnight at 4 C and following manufacturer protocol (Genscript USA Inc. Piscataway, N.J.). AnnexinV/PI was analyzed FACS following manufacturer protocol (BD, Ann Arbor Mich.). All FACS results were analyzed by FlowJo™ software following a rigorous doublet discrimination based on FSC:A vs. width as well as FSC:A vs. height (Tree Star Inc., Ashland Oreg.). […]

AKT and ezrin signaling = test: Western blot of AKT, ezrin and ERM signaling in 468 cells treated with DTX +/- erlotinib; assay type: cell-based, human; conditions: 10 nM DTX +/- erlotinib, 24 h
Experimental: MDA-MB-231 (ATCC) were cultured in DMEM containing 10% Fetal Bovine Serum (FBS), MDA-MB-468 MDA-MB-435 and 4T-1 mammary carcinoma cells (ATCC) were cultured in RPMI containing 10% FBS (Invitrogen, Carlsbad Calif.) at 37 C and 5% CO2. During treatments with chemotherapeutics, cells were grown to semi-confluence and treated with indicated concentrations of chemotherapy in serum-containing medium for indicated time points. When small molecule inhibitors were included in treatments, they were added simultaneously with chemotherapy. For siRNA gene knockdown, cells were plated at a concentration of 5×10^4 cells/ml. Pre-validated Silencer Select siRNA targeting pan-CD44 (5′[…]tt3′) (SEQ ID NO: 38) or Ezrin (5′[…]tt3′) (SEQ ID NO: 39) were purchased from Ambion (Invitrogen, Grand Island, N.Y.). siRNA plasmids were transfected using lipofectamine 2000 (Invitrogen, Carlsbad Calif.) following manufacturer protocol and cultured for 72 hours prior to treatment. Scrambled siRNA was used as a control.
Laemli sample buffer was prepared as a 5× solution containing β-mercaptoethanol as a reducing agent. […] Optical densities of western blots were measured using ImageJ™ open source software (National Institutes of Health) and validated using Adobe CS5™.

For `Oc1cccc(-c2nc(N3CCOCC3)c3oc4ncccc4c3n2)c1` [PI103], the “cell death in the DTC subset, combination” value (231 DTC and 468DTC) was “synergistic induction of cell death”.

With `CC(C)(C)n1nc(-c2ccc(Cl)cc2)c2c(N)ncnc21` [PP2] the “cell viability of DTC, SFK and BCR-Abl inhibition separately and in combination” value (231 parent and DTC) was “dual inhibition does not further augment the sensitivity of the DTC population”.

For `CO[C@H]1C(=O)[C@]2(C)[C@@H](OC)C[C@H]3OC[C@@]3(OC(C)=O)[C@H]2[C@H](OC(=O)c2ccccc2)[C@]2(O)C[C@H](OC(=O)[C@H](O)[C@@H](NC(=O)OC(C)(C)C)c3ccccc3)C(C)=C1C2(C)C` [cabazitaxel], the “susceptibility of DTC to chemotherapy vs parent cell” value [1] was “insensitive”.

In the case of `Cc1nc(Nc2ncc(C(=O)Nc3c(C)cccc3Cl)s2)cc(N2CCN(CCO)CC2)n1` [dasatinib], the “sensitivity (SI) of 231Phenocopy” value (231 parent and DTC; 231Phenocopy vs 231 parent) is reported as “regained parental sensitivity”, the “Sensitivity index (SI)” value (231 parent and DTC; DTC vs parental cell line, 48 h, average viability across 10 nM, 100 nM, 1000 nM and 10 μM) is reported as over 1 and the “dasatinib sensitivity-index in additional DTC subsets” value [2] is reported as “consistent in additional DTC subsets derived from multiple cancer types”. The “AKT signaling (phosphorylated Akt, western blot)” value (AKT signaling) was “reduced, to a minor degree, AKT signaling”, the “apoptosis, cleaved caspase 3 (IHC)” value [3] was “could re-sensitize the refractory cancer tissue to chemotherapy” and the “caspase 8 levels” value [3] was “no change”. For the same compound, the “tumor growth rate (specific growth rate)” value ([4]; 'Early Dasatinib', given 72 hours following DTX) was “significantly augmented the reversal of tumor growth rate”, the “tumor growth rate (specific growth rate)” value ([4]; 'Late Dasatinib', 216 hours following DTX) was “ineffective” and the relative tumor volume ([4]; early treatment group after DTX) was “tumor regression could be achieved”. The relative tumor volume ([4]; late treatment after DTX vs matched vehicle control) was “no difference over a matched vehicle control”, the “cell death in the DTC subset, combination” value (231 DTC and 468DTC) was “synergistic induction of cell death” and the “clinical efficacy as single-agent in TNBC” value (TNBC; Finn et al.) was “failed as a single-agent”. For the same compound, the “toxicity in clinical trials” value (TNBC; Herold et al.) was “significant toxic burden”.

In the case of `COc1cccc2c1C(=O)c1c(O)c3c(c(O)c1C2=O)C[C@@](O)(C(=O)CO)C[C@@H]3O[C@H]1C[C@H](N)[C@H](O)[C@H](C)O1` [doxorubicin], the “susceptibility of DTC to chemotherapy vs parent cell” value [1] is reported as “acquired resistance” and the “CD44 expression of doxorubicin tolerant cells (Dox-TC)” value (MDA-MB-231 (231)) is reported as “robust expression of CD44”.

For `C#Cc1cccc(Nc2ncnc3cc(OCCOC)c(OCCOC)cc23)c1` [erlotinib], the ERM-complex signaling (AKT and ezrin signaling) was “remained intact” and the “induction of AKT and ezrin signaling in response to chemotherapy” value (AKT and ezrin signaling) was “prevented induction of AKT and ezrin signaling”.

With `Cc1ccc(NC(=O)c2ccc(CN3CCN(C)CC3)cc2)cc1Nc1nccc(-c2cccnc2)n1` [imatinib] the “cell viability of DTC, SFK and BCR-Abl inhibition separately and in combination” value (231 parent and DTC) was “dual inhibition does not further augment the sensitivity of the DTC population”.
